Results: PMC12030359, “Fluorine-18-Labeled Positron Emission Tomography Probe Targeting Activated p38α: Design, Synthesis, and In Vivo Evaluation in Rodents” (Pharmaceuticals, 2025)

Columns and labels:
activated p38α = test system: activated p38α; design: method as in PMID 34410619, PMID 35760973; conditions: cited from earlier work
[1] = PET/CT imaging of BAT in normal mouse; format: in vivo, ddY mice
Protocol: A small-animal PET/SPECT/CT scanner (E-Class VECTor^6CT^SD, MILabs, Utrecht, The Netherlands) was used, and it was equipped with a high-efficiency general purpose rat and mouse collimator. After the PET imaging, CT imaging was performed (exposure time: 40 ms, tube voltage: 55 kv, tube current: 0.33 mA). After the CT imaging, the mice were immediately euthanized under anesthesia, their BAT was removed and weighed, and its radioactivity was measured (n = 1). The raw data obtained from the PET scan were reconstructed using the SROSEM method and superimposed onto the CT images. […] The SUVs were then calculated using Amide software 1.0.6 (Slashdot Media, San Francisco, CA, USA).

[2] = Biodistribution study after intravenous administration in normal ddY mice; format: in vivo
Protocol: Mice (n = 20, 5 weeks old, 23–29 g) were randomly assigned to five groups (n = 4 each). […] Sample size was limited to four animals per group in adherence to ethical guidelines for the reduction of animal use. Target tissues, including BAT, blood, muscle, bone, brain, heart, lung, stomach, pancreas, spleen, kidneys, liver, and small and large intestines, were excised and weighed, and the radioactivity of each tissue was measured using a γ-counter. The accumulation of radioactivity was expressed as the percentage of the injected dose per gram of tissue (%ID/g) for all tissues except for the stomach, for which it was expressed as the percentage of the injected dose per organ (%ID).

[3] = In vitro stability analysis in mouse plasma; format: in vitro ADME; conditions: 2 h incubation in mouse plasma at 37 °C, normal-phase TLC
[4] = Log D measurement (1-octanol/PBS); format: physicochemical; conditions: 1-octanol/PBS (pH = 7.4), room temperature
Protocol: The mixture was shaken for 10 min at room temperature, followed by centrifugation at 10,000 rpm for 10 min. The radioactivity in each phase was measured using a γ counter.

[5] = design: method as in PMID 21375264; conditions: acute and chronic toxicity tests in rats; cited from earlier work
[6] = design: method as in PMID 21375264; conditions: cited from earlier work
[7] = test system: TNF-α and IL-6 production; design: method as in PMID 21375264; conditions: following oral administration; cited from earlier work
[8] = 5 min after i.v. administration
[9] = 15 min after i.v. administration
[10] = 30 min after i.v. administration
[11] = 60 min after i.v. administration
[12] = 120 min after i.v. administration

Cn1c(=O)c(Oc2ccc([77Br])cc2F)cc2cnc(NC3CCOCC3)nc21 [[^77Br]4-BR, 6-(4-[^77Br]bromo-2-fluorophenoxy)-8-methyl-2-(tetrahydro-2H-pyran-4-ylamino)-pyrido[2,3-d]pyrimidin-7(8H)-one]
inflamed site-to-blood ratio (activated p38α; at 2 h): 4.1 | time of peak radioactivity accumulation in inflamed tissues (activated p38α; post-injection): 15 min

Cn1c(=O)c(Oc2ccc([18F])cc2F)cc2cnc(NC3CCOCC3)nc21 [[^18F]R1487, 6-(4-[^18F]fluoro-2-fluorophenoxy)-8-methyl-2-(tetrahydro-2H-pyran-4-ylamino)-pyrido[2,3-d]pyrimidin-7(8H)-one]
mean standardized uptake value (SUV) in the BAT ([1]; PET 10–15 min post-intravenous administration, manual ROI): 4.7 | radioactivity in the excised BAT after PET/CT imaging ([1]; γ counter, immediately after PET/CT imaging, n = 1): 11.6 %ID/g | Radioactivity in BAT [2, 8]: 16.3 ± 2.7 %ID/g | Radioactivity in Blood [2, 8]: 2.8 ± 0.1 %ID/g | Radioactivity in Bone [2, 8]: 6.4 ± 0.7 %ID/g | Radioactivity in Brain [2, 8]: 2.9 ± 0.5 %ID/g | Radioactivity in Heart [2, 8]: 5.0 ± 0.8 %ID/g | Radioactivity in Kidney [2, 8]: 7.7 ± 1.9 %ID/g | Radioactivity in Large intestine [2, 8]: 2.2 ± 0.7 %ID/g | Radioactivity in Liver [2, 8]: 11.3 ± 1.9 %ID/g | Radioactivity in Lung [2, 8]: 4.0 ± 0.6 %ID/g | Radioactivity in Muscle [2, 8]: 2.7 ± 0.5 %ID/g | Radioactivity in Pancreas [2, 8]: 4.4 ± 0.9 %ID/g | Radioactivity in Small intestine [2, 8]: 5.8 ± 1.0 %ID/g | Radioactivity in Spleen [2, 8]: 4.0 ± 0.9 %ID/g | Radioactivity in Stomach [2, 8]: 1.1 ± 0.2 %ID | Radioactivity in BAT [2, 9]: 8.0 ± 2.6 %ID/g | Radioactivity in Blood [2, 9]: 1.0 ± 0.2 %ID/g | Radioactivity in Bone [2, 9]: 5.1 ± 0.9 %ID/g | Radioactivity in Brain [2, 9]: 1.3 ± 0.6 %ID/g | Radioactivity in Heart [2, 9]: 2.8 ± 0.5 %ID/g | Radioactivity in Kidney [2, 9]: 5.1 ± 1.3 %ID/g | Radioactivity in Large intestine [2, 9]: 2.3 ± 0.4 %ID/g | Radioactivity in Liver [2, 9]: 5.9 ± 1.3 %ID/g | Radioactivity in Lung [2, 9]: 3.2 ± 0.8 %ID/g | Radioactivity in Muscle [2, 9]: 2.4 ± 0.3 %ID/g | Radioactivity in Pancreas [2, 9]: 2.4 ± 0.6 %ID/g | Radioactivity in Small intestine [2, 9]: 8.6 ± 1.9 %ID/g | Radioactivity in Spleen [2, 9]: 4.5 ± 0.8 %ID/g | Radioactivity in Stomach [2, 9]: 1.3 ± 0.5 %ID | Radioactivity in BAT [2, 10]: 5.2 ± 1.1 %ID/g | Radioactivity in Blood [2, 10]: 0.7 ± 0.1 %ID/g | Radioactivity in Bone [2, 10]: 6.7 ± 1.0 %ID/g | Radioactivity in Brain [2, 10]: 1.0 ± 0.6 %ID/g | Radioactivity in Heart [2, 10]: 2.3 ± 0.7 %ID/g | Radioactivity in Kidney [2, 10]: 3.5 ± 0.6 %ID/g | Radioactivity in Large intestine [2, 10]: 4.3 ± 3.7 %ID/g | Radioactivity in Liver [2, 10]: 4.7 ± 0.9 %ID/g | Radioactivity in Lung [2, 10]: 2.3 ± 0.5 %ID/g | Radioactivity in Muscle [2, 10]: 2.1 ± 0.2 %ID/g | Radioactivity in Pancreas [2, 10]: 1.9 ± 0.1 %ID/g | Radioactivity in Small intestine [2, 10]: 16.9 ± 4.0 %ID/g | Radioactivity in Spleen [2, 10]: 3.3 ± 0.5 %ID/g | Radioactivity in Stomach [2, 10]: 1.8 ± 0.4 %ID | Radioactivity in BAT [2, 11]: 2.2 ± 0.6 %ID/g | Radioactivity in Blood [2, 11]: 0.4 ± 0.1 %ID/g | Radioactivity in Bone [2, 11]: 6.9 ± 2.9 %ID/g | Radioactivity in Brain [2, 11]: 0.4 ± 0.2 %ID/g | Radioactivity in Heart [2, 11]: 1.4 ± 0.1 %ID/g | Radioactivity in Kidney [2, 11]: 2.4 ± 0.7 %ID/g | Radioactivity in Large intestine [2, 11]: 4.3 ± 1.6 %ID/g | Radioactivity in Liver [2, 11]: 3.4 ± 0.3 %ID/g | Radioactivity in Lung [2, 11]: 1.3 ±0.2 %ID/g | Radioactivity in Muscle [2, 11]: 1.0 ± 0.1 %ID/g | Radioactivity in Pancreas [2, 11]: 1.0 ± 0.1 %ID/g | Radioactivity in Small intestine [2, 11]: 23.8 ± 3.7 %ID/g | Radioactivity in Spleen [2, 11]: 1.7 ± 0.4 %ID/g | Radioactivity in Stomach [2, 11]: 4.1 ± 2.2 %ID | Radioactivity in BAT [2, 12]: 1.0 ± 0.2 %ID/g | Radioactivity in Blood [2, 12]: 0.2 ± 0.0 %ID/g | Radioactivity in Bone [2, 12]: 8.7 ± 2.3 %ID/g | Radioactivity in Brain [2, 12]: 0.2 ± 0.1 %ID/g | Radioactivity in Heart [2, 12]: 0.7 ± 0.1 %ID/g | Radioactivity in Kidney [2, 12]: 0.7 ± 0.1 %ID/g | Radioactivity in Large intestine [2, 12]: 32.6 ± 8.7 %ID/g | Radioactivity in Liver [2, 12]: 1.8 ± 0.9 %ID/g | Radioactivity in Lung [2, 12]: 0.4 ± 0.1 %ID/g | Radioactivity in Muscle [2, 12]: 0.5 ± 0.0 %ID/g | Radioactivity in Pancreas [2, 12]: 1.0 ± 0.4 %ID/g | Radioactivity in Small intestine [2, 12]: 13.0 ± 3.4 %ID/g | Radioactivity in Spleen [2, 12]: 0.9 ± 0.1 %ID/g | Radioactivity in Stomach [2, 12]: 1.2 ± 0.5 %ID | time of peak radioactivity in BAT ([2]; post-injection): 5 min | radioactivity detected in intact form [3]: more than 96% | logD [4]: 2.2

Cn1c(=O)c(Oc2ccc(F)cc2F)cc2cnc(NC3CCOCC3)nc21 [R1487, 6-(2,4-difluorophenoxy)-8-methyl-2-(tetrahydro-2H-pyran-4-ylamino)pyrido [2,3-d]pyrimidin-7(8H)-one]
acceptable tolerability, no severe adverse events [5]: up to 10 mg/kg | clearance route [6]: predominantly hepatic clearance | oral bioavailability ([6]; monkeys, oral administration): 51.6% | half-life in blood ([6]; monkeys): 22.5 h | production of TNF-α and IL-6 [7]: suppress
